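Each compound was tested at five concentrations against cells in 96-well plates for 48 hours. The concentration for full growth arrest is given as TGI.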
What was measured:
Test in all cases: growth of human tumour cells (NCI), 48 h
MDA-N = test system: MDA-N
KM12 colon = test system: KM12 colon
CCRF-CEM leukemia = test system: CCRF-CEM leukemia
UO-31 renal = test system: UO-31 renal
UACC-257 melanoma = test system: UACC-257 melanoma
NCI-H23 lung = test system: NCI-H23 lung
K-562 leukemia = test system: K-562 leukemia
OVCAR-4 ovarian = test system: OVCAR-4 ovarian
SK-MEL-28 melanoma = test system: SK-MEL-28 melanoma
MOLT-4 leukemia = test system: MOLT-4 leukemia
SN12C renal = test system: SN12C renal
MDA-MB-231 breast = test system: MDA-MB-231 breast
TK-10 renal = test system: TK-10 renal
NCI/ADR-RES ovarian = test system: NCI/ADR-RES ovarian
SF-268 CNS = test system: SF-268 CNS
UACC-62 melanoma = test system: UACC-62 melanoma
U251 CNS = test system: U251 CNS
A498 renal = test system: A498 renal
SR leukemia = test system: SR leukemia
BT-549 breast = test system: BT-549 breast
HOP-92 NSCLC = test system: HOP-92 NSCLC
OVCAR-8 ovarian = test system: OVCAR-8 ovarian
NCI-H460 lung = test system: NCI-H460 lung
NCI-H226 lung = test system: NCI-H226 lung
HL-60(TB) leukemia = test system: HL-60(TB) leukemia
HCT-15 colon = test system: HCT-15 colon
SNB-19 CNS = test system: SNB-19 CNS
CAKI-1 renal = test system: CAKI-1 renal
MDA-MB-435 = test system: MDA-MB-435
SW-620 colon = test system: SW-620 colon
ACHN renal = test system: ACHN renal
HCC-2998 colon = test system: HCC-2998 colon
RPMI-8226 leukemia = test system: RPMI-8226 leukemia
SNB-75 CNS = test system: SNB-75 CNS
SK-OV-3 ovarian = test system: SK-OV-3 ovarian
PC-3 prostate = test system: PC-3 prostate
COLO 205 colon = test system: COLO 205 colon
786-0 renal = test system: 786-0 renal
DU-145 prostate = test system: DU-145 prostate
OVCAR-5 ovarian = test system: OVCAR-5 ovarian
M14 melanoma = test system: M14 melanoma
HS 578T breast = test system: HS 578T breast
EKVX NSCLC = test system: EKVX NSCLC
OVCAR-3 ovarian = test system: OVCAR-3 ovarian
A549 NSCLC = test system: A549 NSCLC
NCI-H522 lung = test system: NCI-H522 lung
LOX IMVI melanoma = test system: LOX IMVI melanoma
MALME-3M melanoma = test system: MALME-3M melanoma
T-47D breast = test system: T-47D breast
SK-MEL-2 melanoma = test system: SK-MEL-2 melanoma
IGROV1 ovarian = test system: IGROV1 ovarian
HT29 colon = test system: HT29 colon
RXF 393 renal = test system: RXF 393 renal
SK-MEL-5 melanoma = test system: SK-MEL-5 melanoma
SF-295 CNS = test system: SF-295 CNS
HOP-62 NSCLC = test system: HOP-62 NSCLC
MCF7 breast = test system: MCF7 breast
SF-539 CNS = test system: SF-539 CNS

## CC1(C)/C(=N\O)C2(C#N)CCC1C2 (stereo unspecified)
MDA-N
  TGI: > 100 µM
KM12 colon
  TGI: > 100 µM
CCRF-CEM leukemia
  TGI: > 100 µM
UO-31 renal
  TGI: > 100 µM
UACC-257 melanoma
  TGI: > 100 µM
NCI-H23 lung
  TGI: > 100 µM
K-562 leukemia
  TGI: > 100 µM
OVCAR-4 ovarian
  TGI: > 100 µM
SK-MEL-28 melanoma
  TGI: > 100 µM
MOLT-4 leukemia
  TGI: > 100 µM
SN12C renal
  TGI: > 100 µM
MDA-MB-231 breast
  TGI: > 100 µM
TK-10 renal
  TGI: > 100 µM
NCI/ADR-RES ovarian
  TGI: > 100 µM
SF-268 CNS
  TGI: > 100 µM
UACC-62 melanoma
  TGI: > 100 µM
U251 CNS
  TGI: > 100 µM
A498 renal
  TGI: > 100 µM
SR leukemia
  TGI: > 100 µM
BT-549 breast
  TGI: > 100 µM
HOP-92 NSCLC
  TGI: > 100 µM
OVCAR-8 ovarian
  TGI: > 100 µM
NCI-H460 lung
  TGI: > 100 µM
NCI-H226 lung
  TGI: > 100 µM
HL-60(TB) leukemia
  TGI: > 100 µM
HCT-15 colon
  TGI: > 100 µM
SNB-19 CNS
  TGI: > 100 µM
CAKI-1 renal
  TGI: > 100 µM
MDA-MB-435
  TGI: > 100 µM
SW-620 colon
  TGI: > 100 µM
ACHN renal
  TGI: > 100 µM
HCC-2998 colon
  TGI: > 100 µM
RPMI-8226 leukemia
  TGI: > 100 µM
SNB-75 CNS
  TGI: > 100 µM

## C/C=C1/CN2CCc3c([nH]c4ccccc34)[C@@H]2C[C@@H]1Cc1[nH]ccc2c1[nH]c1cc(=O)ccc12
MDA-N
  TGI: 4.51 µM
SK-OV-3 ovarian
  TGI: 4.4 µM
CCRF-CEM leukemia
  TGI: > 100 µM
PC-3 prostate
  TGI: 6.88 µM
UO-31 renal
  TGI: 2.94 µM
COLO 205 colon
  TGI: > 100 µM
NCI-H23 lung
  TGI: 3.34 µM
K-562 leukemia
  TGI: > 100 µM
OVCAR-4 ovarian
  TGI: 3.73 µM
SK-MEL-28 melanoma
  TGI: 4.5 µM
MOLT-4 leukemia
  TGI: > 100 µM
SN12C renal
  TGI: 3.17 µM
TK-10 renal
  TGI: 4.33 µM
NCI/ADR-RES ovarian
  TGI: 3.49 µM
786-0 renal
  TGI: 3.19 µM
DU-145 prostate
  TGI: 4.26 µM
SF-268 CNS
  TGI: 3.33 µM
UACC-62 melanoma
  TGI: 3.62 µM
A498 renal
  TGI: 4.94 µM
OVCAR-5 ovarian
  TGI: 8.64 µM
SR leukemia
  TGI: > 100 µM
BT-549 breast
  TGI: 31.4 µM
HOP-92 NSCLC
  TGI: 37.6 µM
OVCAR-8 ovarian
  TGI: 3.17 µM
NCI-H460 lung
  TGI: 64.4 µM
M14 melanoma
  TGI: 4.78 µM
NCI-H226 lung
  TGI: > 100 µM
HS 578T breast
  TGI: 4.15 µM
HCT-15 colon
  TGI: 10.6 µM
EKVX NSCLC
  TGI: 4.05 µM
SNB-19 CNS
  TGI: > 100 µM
OVCAR-3 ovarian
  TGI: 5.15 µM
CAKI-1 renal
  TGI: 3.8 µM
MDA-MB-435
  TGI: 3.45 µM
SW-620 colon
  TGI: > 100 µM
ACHN renal
  TGI: > 100 µM
SNB-75 CNS
  TGI: 3.36 µM

## Cc1ccc(S(=O)(=O)n2c3c(c4ccccc42)CCN2C(=O)C(S(=O)(=O)c4ccccc4)=CCC32)cc1 (stereo unspecified)
MDA-N
  TGI: 0.378 µM
KM12 colon
  TGI: 0.645 µM
A549 NSCLC
  TGI: 2.77 µM
SK-OV-3 ovarian
  TGI: 2.61 µM
PC-3 prostate
  TGI: 0.562 µM
NCI-H522 lung
  TGI: 0.567 µM
LOX IMVI melanoma
  TGI: 0.452 µM
MALME-3M melanoma
  TGI: 0.463 µM
UO-31 renal
  TGI: 0.384 µM
COLO 205 colon
  TGI: 0.458 µM
UACC-257 melanoma
  TGI: 0.319 µM
NCI-H23 lung
  TGI: 0.335 µM
K-562 leukemia
  TGI: 0.673 µM
T-47D breast
  TGI: 0.375 µM
OVCAR-4 ovarian
  TGI: 0.436 µM
SK-MEL-28 melanoma
  TGI: 0.353 µM
SN12C renal
  TGI: 0.434 µM
MDA-MB-231 breast
  TGI: 0.409 µM
TK-10 renal
  TGI: 0.282 µM
786-0 renal
  TGI: 0.346 µM
DU-145 prostate
  TGI: 0.375 µM
SK-MEL-2 melanoma
  TGI: 0.475 µM
IGROV1 ovarian
  TGI: 0.36 µM
UACC-62 melanoma
  TGI: 0.622 µM
U251 CNS
  TGI: 0.404 µM
A498 renal
  TGI: 0.582 µM
HT29 colon
  TGI: 0.48 µM
RXF 393 renal
  TGI: 0.273 µM
OVCAR-5 ovarian
  TGI: 0.581 µM
SK-MEL-5 melanoma
  TGI: 0.337 µM
SR leukemia
  TGI: 0.635 µM
HOP-92 NSCLC
  TGI: 0.315 µM
OVCAR-8 ovarian
  TGI: 0.328 µM
NCI-H460 lung
  TGI: 1.51 µM
HL-60(TB) leukemia
  TGI: 0.468 µM
SF-295 CNS
  TGI: 3.49 µM
HS 578T breast
  TGI: 9.15 µM
HOP-62 NSCLC
  TGI: 0.562 µM
HCT-15 colon
  TGI: 0.421 µM
MCF7 breast
  TGI: 0.656 µM
SNB-19 CNS
  TGI: 1.91 µM
OVCAR-3 ovarian
  TGI: 0.332 µM
CAKI-1 renal
  TGI: 0.872 µM
MDA-MB-435
  TGI: 0.445 µM
SW-620 colon
  TGI: 0.715 µM
SF-539 CNS
  TGI: 0.391 µM
ACHN renal
  TGI: 0.393 µM
HCC-2998 colon
  TGI: 0.44 µM
RPMI-8226 leukemia
  TGI: 0.749 µM
SNB-75 CNS
  TGI: 1.41 µM

## CC1(C)C2CCC(CN)(C2)C1O (stereo unspecified)
MDA-N
  TGI: > 100 µM
KM12 colon
  TGI: > 100 µM
CCRF-CEM leukemia
  TGI: > 100 µM
UO-31 renal
  TGI: > 100 µM
UACC-257 melanoma
  TGI: > 100 µM
NCI-H23 lung
  TGI: > 100 µM
K-562 leukemia
  TGI: > 100 µM
OVCAR-4 ovarian
  TGI: > 100 µM
SK-MEL-28 melanoma
  TGI: > 100 µM
MOLT-4 leukemia
  TGI: > 100 µM
SN12C renal
  TGI: > 100 µM
MDA-MB-231 breast
  TGI: > 100 µM
TK-10 renal
  TGI: > 100 µM
NCI/ADR-RES ovarian
  TGI: > 100 µM
SF-268 CNS
  TGI: > 100 µM
UACC-62 melanoma
  TGI: > 100 µM
U251 CNS
  TGI: > 100 µM
A498 renal
  TGI: > 100 µM
SR leukemia
  TGI: > 100 µM
BT-549 breast
  TGI: > 100 µM
HOP-92 NSCLC
  TGI: > 100 µM
OVCAR-8 ovarian
  TGI: > 100 µM
NCI-H460 lung
  TGI: > 100 µM
NCI-H226 lung
  TGI: > 100 µM
HL-60(TB) leukemia
  TGI: > 100 µM
HCT-15 colon
  TGI: > 100 µM
EKVX NSCLC
  TGI: > 100 µM
SNB-19 CNS
  TGI: > 100 µM
CAKI-1 renal
  TGI: > 100 µM
MDA-MB-435
  TGI: > 100 µM
SW-620 colon
  TGI: > 100 µM
ACHN renal
  TGI: > 100 µM
HCC-2998 colon
  TGI: > 100 µM
RPMI-8226 leukemia
  TGI: > 100 µM
SNB-75 CNS
  TGI: > 100 µM

Source: PubChem BioAssay (NCI)
